Results on 10 molecules are retold here after ChEMBL document CHEMBL5233248, “Resveratrol - A comprehensive review of recent advances in anticancer drug design and development” (Eur J Med Chem, 2020).

SMILES strings stand for the structures.

For series [1], the system named is HCT-116. The series can be described thus: Anticancer activity against human HCT-116 cells assessed as cell growth inhibition incubated for 4 days. Format: functional, cell-based. The following applies: HCT-116, 96 h.
A short description of series [2]: Anticancer activity against human MuM-2B cells assessed as cell growth inhibition incubated for 72 hrs by CCK-8 assay. Format: functional, cell-based. A general note: Tetrazolium assays rely on reduction of a dye to a coloured formazan, in cell work by metabolically active cells.
The target in series [3] is T1, Aromatase (Homo sapiens, UniProt P11511).
T1 sequence (P11511 whole entry): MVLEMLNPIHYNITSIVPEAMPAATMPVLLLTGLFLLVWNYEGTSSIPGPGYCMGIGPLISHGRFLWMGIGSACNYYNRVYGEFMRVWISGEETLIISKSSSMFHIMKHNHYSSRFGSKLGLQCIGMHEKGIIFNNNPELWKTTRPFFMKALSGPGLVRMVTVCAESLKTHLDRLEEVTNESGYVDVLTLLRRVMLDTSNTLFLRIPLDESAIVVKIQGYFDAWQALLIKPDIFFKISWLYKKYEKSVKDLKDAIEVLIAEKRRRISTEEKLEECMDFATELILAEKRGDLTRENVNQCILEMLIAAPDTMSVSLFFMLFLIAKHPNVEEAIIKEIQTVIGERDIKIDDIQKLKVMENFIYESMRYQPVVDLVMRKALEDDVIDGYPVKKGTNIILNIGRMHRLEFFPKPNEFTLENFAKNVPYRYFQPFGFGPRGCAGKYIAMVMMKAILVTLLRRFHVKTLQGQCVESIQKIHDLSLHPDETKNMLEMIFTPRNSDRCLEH
The series can be described thus: Inhibition of human recombinant aromatase using 7-methoxy-4-trifluoromethyl coumarin as substrate preincubated for 10 mins followed by compound addition measured after 30 mins in presence of NADPH by HTS analysis.

Series [4] is described as follows: Cytotoxicity activity against human CCD-1059Sk cells assessed as cell growth inhibition incubated for 48 hrs by MTS assay. Format: toxicity, cell-based.
A short description of series [5]: Cytotoxicity activity against human CCD-1059Sk cells assessed as cell growth inhibition incubated for 48 hrs in presence of resveratrol by MTS assay. It is filed as toxicity, cell-based.
Series [6] in a line: in vitro. As to conditions: human, CCD-1059Sk cells and MCF7 cells.
Description: Selectivity index, ratio of IC50 for cytotoxicity against CCD-1059Sk cells to IC50 for antiproliferative activity against MCF7 cells in presence of resveratrol
Series [7] can be described thus: in vitro. The following applies: human, CCD-1059Sk cells and MCF7 cells. This is another data set of the same source.
Description: Selectivity index, ratio of IC50 for cytotoxicity against CCD-1059Sk cells to IC50 for antiproliferative activity against MCF7 cells
In series [8] the test system is MCF7. The experiment in a line: Anticancer activity against human MCF7 cells assessed as cell growth inhibition incubated for 48 hrs by MTS assay. Format: functional, cell-based. As to conditions: MCF7, 48 h.
Series [9] has as its system MCF7. The experiment in a line: Anticancer activity against human MCF7 cells assessed as cell growth inhibition incubated for 48 hrs in presence of resveratrol by MTS assay. It is filed as functional, cell-based. As to conditions: MCF7, 48 h.
In series [10] the target is T1, Aromatase.
Description: Inhibition of human Aromatase
The test system of series [11] is HepG2. The experiment in a line: Anticancer activity against human HepG2 cells assessed as cell growth inhibition incubated for 24 hrs by MTT assay. It is filed as functional, cell-based. The following applies: HepG2, 24 h.
The test system of series [12] is HT-29. The experiment in a line: Anticancer activity against human HT-29 cells assessed as cell growth inhibition incubated for 24 hrs by MTT assay. It is filed as functional, cell-based. As to conditions: Homo sapiens, HT-29, 24 h.
In series [13] the test system is HCT-116. The experiment in a line: Anticancer activity against human HCT-116 cells assessed as cell growth inhibition. It is filed as functional, cell-based.
Series [14] has as its system SK-BR-3. The experiment in a line: Anticancer activity against human SK-BR-3 cells assessed as cell growth inhibition incubated for 24 hrs by MTT assay. It is filed as functional, cell-based. As to conditions: SK-BR-3, 24 h.
Series [15] concerns the target CYP1A (Homo sapiens, UniProt P04798+P05177). The experiment in a line: Inhibtion of CYP1A (unknown origin). Format: ADME, protein assay.
The test system of series [16] is Ishikawa. The series can be described thus: cells. The following applies: Homo sapiens.
Description: Anti-tumor activity against human ishikawa cells assessed as anti-estrogenic potential
Series [17] has as its system MDA-MB-231. The series can be described thus: Anticancer activity against human MDA-MB-231 cells assessed as cell growth inhibition by CyQuant assay. It is filed as functional, cell-based.
A short description of series [18]: Cytotoxicity against mouse NIH3T3 cells assessed as cell growth inhibition by CyQuant assay. It is filed as toxicity, cell-based.
The test system of series [19] is PANC-1. The series can be described thus: Anticancer activity against human PANC-1 cells assessed as cell growth inhibition by CyQuant assay. Format: functional, cell-based.
Series [20] relates to U-251. The experiment in a line: Anticancer activity against human U-251MG cells assessed as cell growth inhibition by CyQuant assay. Format: functional, cell-based.
The test system of series [21] is MCF7. The series can be described thus: Anticancer activity against human MCF7 cells assessed as cell growth inhibition by CyQuant assay. Format: functional, cell-based.
The subject of series [22] is HL-60. The series can be described thus: Anticancer activity against human HL-60 cells assessed as cell growth inhibition incubated for 48 hrs by MTT assay. It is filed as functional, cell-based. The following applies: HL-60, 48 h.
The subject of series [23] is HeLa. The experiment in a line: Anticancer activity against human HeLa cells assessed as cell growth inhibition incubated for 48 hrs by MTT assay. Format: functional, cell-based.
For series [24], the system named is SK-OV-3. The series can be described thus: Anticancer activity against human SK-OV-3 assessed as cell growth inhibition incubated for 72 hrs by MTT assay. Format: functional, cell-based. The following applies: SK-OV-3, 72 h.
For series [25], the system named is HaCaT. The experiment in a line: Anticancer activity against human HaCaT cells assessed as reduction of cell viability incubated for 48 hrs by MTT assay. Format: functional, cell-based.
Series [26] has as its system MCF-12A. The series can be described thus: Anticancer activity against human MCF-12A cells assessed as reduction of cell viability incubated for 48 hrs by MTT assay. Format: functional, cell-based.
In series [27] the test system is MCF7. The series can be described thus: Anticancer activity against human MCF7 cells assessed as reduction of cell viability incubated for 48 hrs by MTT assay. Format: functional, cell-based. The following applies: MCF7, 48 h.
Series [28] has as its system A-431. The series can be described thus: Anticancer activity against human A-431 cells assessed as reduction of cell viability incubated for 48 hrs by MTT assay. It is filed as functional, cell-based. As to conditions: A-431, 48 h.
The test system of series [29] is HepG2. The experiment in a line: Anticancer activity against human HepG2 cells assessed as cell growth inhibition incubated for 3 days by MTT assay. As to conditions: HepG2, 72 h. It is filed as functional, cell-based.

As a reminder, the IC50 is the concentration that inhibits the measured activity by half. Consider `CC1c2cc(O)c(O)cc2Oc2cc(/C=C/c3ccc(O)cc3)cc(O)c21` (centres undefined), for which, in [1], the IC50 came out at 9.52 µM.
As for `COc1cc(/C=C/c2ccc(OCC(=O)O[C@H]3c4cc5c(cc4[C@@H](c4cc(OC)c(OC)c(OC)c4)[C@H]4C(=O)OC[C@@H]43)OCO5)cc2)cc(OC)c1`, the IC50 in [2] came out at 0.081 µM.
Consider `COc1ccccc1/C=C/c1ccc(OC)c(OC)c1`, for which the IC50 in series [3] is 85 µM.
Turning to `COc1cc(/C=C/C(=O)CC(=O)/C=C/c2ccc(O)c(OC)c2)ccc1O` [CURCUMIN], the IC50 at 48 h in series [4] was 133 µM; in [5] it was 83.1 µM. For the same molecule, the figures for the selectivity ratio in series [6] and in [7] were 1.35 and 1.93, respectively. The IC50 in series [8] stood at 68.2 µM; in [9], 61.7 µM.
Regarding `COc1ccc(/C=C/c2cc(OC)cc(OC)c2)cc1` [TRISMETHOXYRESVERATROL], the IC50 in [10] was 13.6 µM; in series [11], more than 100 µM; in [12], 14 µM; in series [13], 1.1 µM; in [14], 112 µM; in series [15], 0.003 µM. In addition, the midpoint of inhibition in series [16], the IC50, lay at 12.6 µM.
For the molecule `COc1cc(/C=C/c2ccc(OC(C)=O)cc2)cc(OC)c1`, the IC50 in series [17] was 18.5 µM; in [18], more than 20 µM; in series [19], 18.1 µM; in series [20] it was 6.7 µM; in series [21] it was 10.8 µM.
Consider `COc1ccc(NC(=O)c2cc(OC)cc(OC)c2)cc1`, for which the 50% inhibitory concentration (IC50) worked out at 47.7 µM in [22] and 38.9 µM in series [23].
As for `COc1cc(OC)cc(-n2cnc(-c3ccc(O)cc3)c2)c1`, in series [24], the IC50 turned out to be 18.2 µM.
Consider `COc1cc(/C=C/c2ccc(SC)cc2)cc(OC)c1OC`, for which the IC50 in series [25] was 10 µM; in series [26], 25.7 µM; in series [27], 2.1 µM; in series [28], 19.3 µM.
Regarding `CCOc1cc(/C=C/c2ccc(O)c(O)c2)cc(OCC)c1`, in series [29], the IC50 was 67.2 µM.
